Test results reported in patent US20250206758A1, “SUBSTITUTED BRIDGED RING INHIBITOR, PREPARATION METHOD THEREFOR AND APPLICATION THEREOF” (SUZHOU ZELGEN BIOPHARMACEUTICALS CO., LTD., priority 2022, published 2025).
Where two headings read alike, the source gives them in different places.

How the values were obtained:
AsPC-1 = experiment: Cell proliferation inhibition, AsPC-1 (CellTiter-Glo 3D, 7 days); type: cell-based; conditions: AsPC-1, 7 days
Description: (§1) • (a) Resuscitating cells in T75 cell culture flask: • (b) When the cell confluence reaches 80-90%, subculturing the cells.
(§2) The diluted test compound was added to a 384-well cell culture plate with a nanoliter pipetting system, and duplicate wells were set up. An equal volume of culture medium was added to the positive control group; and an equal volume of DMSO was added to the negative control group, then centrifugation was conducted at 1000 rpm for 1 min at room temperature.
(§3) Cells were inoculated into a) 384-well culture plate, with an equal volume of cells added to the negative control group, and only an equal volume of culture medium added to the positive control group. The plate was centrifuged at 1000 rpm for 1 min at room temperature, and the final DMSO concentration of the compound was 0.5% at last. The plate was placed in a 37° C., 5% CO2 constant temperature incubator for 7 days.
(§4) 20 μL/well of CellTiter-Glo® 3D to b) was added to 384-well cell culture plate, and the plate was shook at 320 rpm for 20 min in the dark, and incubated at room temperature in the dark for 2 hrs.
(§5) The luminescence value was read using an Envision multi-functional microplate reader.
(§6) The inhibition rate (IR) of the test compound was calculated using the following formula: IR (%)=(1−(RLU compound−RLU blank control)/(RLU meidum control−RLU blank control))*100%. The inhibition rates of different concentrations of compounds were calculated in Excel, and then the inhibition curves were plotted and the related parameters (including the minimum inhibition rate, maximum inhibition rate and IC50) were calculated using GraphPad Prism software.

GP2D = experiment: Cell proliferation inhibition, GP2D (CellTiter-Glo 3D, 7 days); type: cell-based
Description: as §1, §2, §3, §4, §5, §6

C#Cc1c(F)ccc2cc(O)cc(-c3ncc4c(N5C[C@H]6CC[C@@H](C5)N6)nc(OC[C@]56C[C@H](F)CN5C[C@@]5(CC5(F)F)C6)nc4c3F)c12 [Example 15E, 4-(4-((1R,5S)-3,8-diazabicyclo[3.2.1]octan-3-yl)-8-fluoro-2-(((1S,6'S,7a'S)-2,2,6′-trifluorodihydro-1′H,3′H-spiro[cyclopropan-1,2′-pyrrolizin]-7a′(5′H)-yl)methoxy)pyridino[4,3-d]pyrimidin-7-yl)-5-ethynyl-6-fluoronaphthalen-2-ol]
IC50 (AsPC-1; Homo sapiens, ASPC1, 168 h): 314 nM | IC50 (GP2D; 168 h): 32.2 nM

N#Cc1cc(N)cc(-c2ncc3c(N4C[C@H]5CC[C@@H](C4)N5)nc(OC[C@@]45CCCN4C[C@@]4(CC4(F)F)C5)nc3c2F)c1Cl [Example 48, 3-(4-((1R,5S)-3,8-diazabicyclo[3.2.1]octan-3-yl)-2-(((1S,7a'S)-2,2-difluorodihydro-1′H,3′H-spiro[cyclopropan-1,2′-pyrrolizin]-7a′(5′H)-yl)methoxy)-8-fluoropyridino[4,3-d]pyrimidin-7-yl)-5-amino-2-chlorobenzonitrile]
IC50 (AsPC-1; Homo sapiens, ASPC1, 168 h): 779 nM | IC50 (GP2D; 168 h): 66 nM

C#Cc1c(F)ccc2cc(O)cc(-c3ncc4c(N5CCCC(C)(N)C5)nc(OC[C@@]56CCCN5C[C@@]5(CC5(F)F)C6)nc4c3F)c12 (stereo partly drawn) [Example 29, 4-(4-(3-amino-3-methylpiperidin-1-yl)-2-(((1S,7a'S)-2,2-difluorodihydro-1′H,3′H-spiro[cyclopropan-1,2′-pyrrolizin]-7a′(5′H)-yl)methoxy)-8-fluoropyridino[4,3-d]pyrimidin-7-yl)-5-ethynyl-6-fluoronaphthalen-2-ol]
IC50 (AsPC-1; Homo sapiens, ASPC1, 168 h): 180 nM | IC50 (GP2D; 168 h): 17.7 nM

C#Cc1c(F)ccc2cc(O)cc(-c3ncc4c(N5C[C@H]6CC[C@@H](C5)N6)nc(OC[C@]56C[C@@H](F)CN5C[C@@]5(CC5(F)F)C6)nc4c3F)c12 [Example 15A, 4-(4-((1R,5S)-3,8-diazabicyclo[3.2.1]octan-3-yl)-8-fluoro-2-(((1S,6′R,7a'S)-2,2,6′-trifluorodihydro-1′H,3′H-spiro[cyclopropan-1,2′-pyrrolizin]-7a′(5′H)-yl)methoxy)pyridino[4,3-d]pyrimidin-7-yl)-5-ethynyl-6-fluoronaphthalen-2-ol]
IC50 (AsPC-1; Homo sapiens, ASPC1, 168 h): 108 nM | IC50 (GP2D; 168 h): 13.1 nM

Nc1cc(Cl)c(Cl)c(-c2ncc3c(N4C[C@H]5CC[C@@H](C4)N5)nc(OC[C@@]45CCCN4C[C@@]4(CC4(F)F)C5)nc3c2F)c1 [Example 47, 3-(4-((1R,5S)-3,8-diazabicyclo[3.2.1]octan-3-yl)-2-(((1S,7a'S)-2,2-difluorodihydro-1′H,3′H-spiro[cyclopropan-1,2′-pyrrolizin]-7a′(5′H)-yl)methoxy)-8-fluoropyridino[4,3-d]pyrimidin-7-yl)-4,5-dichloroaniline]
IC50 (AsPC-1; Homo sapiens, ASPC1, 168 h): 62.3 nM | IC50 (GP2D; 168 h): 4.54 nM

CCc1c(F)ccc2cc(O)cc(-c3ncc4c(N5CC6CCC(C5)N6)nc(OC[C@@]56CCCN5C[C@@]5(CC5(F)F)C6)nc4c3F)c12 [Example 17A]
IC50 (AsPC-1; Homo sapiens, ASPC1, 168 h): 1.07 nM | IC50 (GP2D; 168 h): 0.26 nM

CCc1c(F)ccc2cc(O)cc(-c3ncc4c(N5CC6CCC(C5)N6)nc(OC[C@]56CCCN5C[C@]5(CC5(F)F)C6)nc4c3F)c12 [Example 17B]
IC50 (AsPC-1; Homo sapiens, ASPC1, 168 h): 7.84 nM | IC50 (GP2D; 168 h): 1.15 nM

N#Cc1c(-c2ncc3c(N4C[C@H]5CC[C@@H](C4)N5)nc(OC[C@@]45CCCN4C[C@@]4(CC4(F)F)C5)nc3c2F)cc(N)cc1C(F)(F)F [Example 50, 2-(4-((1R,5S)-3,8-diazabicyclo[3.2.1]octan-3-yl)-2-(((1S,7a'S)-2,2-difluorodihydro-1′H,3′H-spiro[cyclopropan-1,2′-pyrrolizin]-7a′(5′H)-yl)methoxy)-8-fluoropyridino[4,3-d]pyrimidin-7-yl)-4-amino-6-(trifluoromethyl)benzonitrile]
IC50 (AsPC-1; Homo sapiens, ASPC1, 168 h): > 1000 nM | IC50 (GP2D; 168 h): > 100 nM

C#Cc1c(F)ccc2cc(O)cc(-c3ncc4c(N5C[C@H]6CC[C@@](C)(C5)N6)nc(OC[C@@]56CCCN5C[C@@]5(CC5(F)F)C6)nc4c3F)c12 [Example 20A, 4-(2-(((1S,7a'S)-2,2-difluorodihydro-1′H,3′H-spiro[cyclopropan-1,2′-pyrrolizin]-7a′(5′H)-yl)methoxy)-8-fluoro-4-((1S,5R)-1-methyl-3,8-diazabicyclo[3.2.1]octan-3-yl)pyridino[4,3-d]pyrimidin-7-yl)-5-ethynyl-6-fluoronaphthol-2-ol]
IC50 (AsPC-1): 4.11 nM | IC50 (GP2D): 0.44 nM

Cc1c(F)cc2[nH]ncc2c1-c1ncc2c(N3C[C@H]4CC[C@@H](C3)N4)nc(OC[C@@]34CCCN3C[C@@]3(CC3(F)F)C4)nc2c1F [Example 22, (1S,7a'S)-7a′-(((4-((1R,5S)-3,8-diazabicyclo[3.2.1]octan-3-yl)-8-fluoro-7-(6-fluoro-5-methyl-1H-indazol-4-yl)pyridino[4,3-d]pyrimidin-2-yl)oxy)methyl)-2,2-difluorodihydro-1′H,3′H-spiro[cyclopropan-1,2′-pyrrolizin]]
IC50 (AsPC-1; Homo sapiens, ASPC1, 168 h): > 1000 nM | IC50 (GP2D; 168 h): > 100 nM

C#Cc1c(F)ccc2cc(O)cc(-c3ncc4c(N5C[C@H]6CC[C@@H](C5)N6)nc(OC[C@]56C[C@H](F)CN5C[C@]5(CC5(F)F)C6)nc4c3F)c12 [Example 15F, 4-(4-((1R,5S)-3,8-diazabicyclo[3.2.1]octan-3-yl)-8-fluoro-2-(((1R,6'S,7a'S)-2,2,6′-trifluorodihydro-1′H,3′H-spiro[cyclopropan-1,2′-pyrrolizin]-7a′(5′H)-yl)methoxy)pyridino[4,3-d]pyrimidin-7-yl)-5-ethynyl-6-fluoronaphthalen-2-ol]
IC50 (AsPC-1; Homo sapiens, ASPC1, 168 h): > 1000 nM | IC50 (GP2D; 168 h): > 100 nM

Nc1cc(Cl)c(F)c(-c2ncc3c(N4C[C@H]5CC[C@@H](C4)N5)nc(OC[C@@]45CCCN4C[C@@]4(CC4(F)F)C5)nc3c2F)c1 [Example 46, 3-(4-((1R,5S)-3,8-diazabicyclo[3.2.1]octan-3-yl)-2-(((1S,7a'S)-2,2-difluorodihydro-1′H,3′H-spiro[cyclopropan-1,2′-pyrrolizin]-7a′(5′H)-yl)methoxy)-8-fluoropyridino[4,3-d]pyrimidin-7-yl)-5-chloro-4-fluoroaniline]
IC50 (AsPC-1; Homo sapiens, ASPC1, 168 h): > 1000 nM | IC50 (GP2D; 168 h): > 100 nM

N#Cc1c(N)sc2cc(F)cc(-c3ncc4c(N5C[C@H]6CC[C@@H](C5)N6)nc(OC[C@@]56CCCN5C[C@@]5(CC5(F)F)C6)nc4c3F)c12 [Example 32, 4-(4-((1R,5S)-3,8-diazabicyclo[3.2.1]octan-3-yl)-2-(((1S,7a'S)-2,2-difluorodihydro-1′H,3′H-spiro[cyclopropan-1,2′-pyrrolizin]-7a′(5′H)-yl)methoxy)-8-fluoropyridino[4,3-d]pyrimidin-7-yl)-2-amino-6-fluorobenzo[b]thiophen-3-carbonitrile]
IC50 (AsPC-1; Homo sapiens, ASPC1, 168 h): 483 nM | IC50 (GP2D; 168 h): 21 nM

Nc1cncc(-c2ncc3c(N4C[C@H]5CC[C@@H](C4)N5)nc(OC[C@@]45CCCN4C[C@@]4(CC4(F)F)C5)nc3c2F)c1C(F)(F)F [Example 53, 5-(4-((1R,5S)-3,8-diazabicyclo[3.2.1]octan-3-yl)-2-(((1S,7a'S)-2,2-difluorodihydro-1′H,3′H-spiro[cyclopropan-1,2′-pyrrolizin]-7a′(5′H)-yl)methoxy)-8-fluoropyridino[4,3-d]pyrimidin-7-yl)-4-(trifluoromethyl)pyridin-3-amine]
IC50 (AsPC-1; Homo sapiens, ASPC1, 168 h): 896 nM | IC50 (GP2D; 168 h): 60 nM

C#Cc1c(F)ccc2cc(O)cc(-c3ncc4c(N5C[C@H]6CC[C@@H](C5)N6)nc(OC[C@@]56C[C@@H](F)CN5C[C@]5(CC5(F)F)C6)nc4c3F)c12 [Example 15D, 4-(4-((1R,5S)-3,8-diazabicyclo[3.2.1]octan-3-yl)-8-fluoro-2-(((1R,6′R,7a′R)-2,2,6′-trifluorodihydro-1′H,3′H-spiro[cyclopropan-1,2′-pyrrolizin]-7a′(5′H)-yl)methoxy)pyridino[4,3-d]pyrimidin-7-yl)-5-ethynyl-6-fluoronaphthalen-2-ol]
IC50 (AsPC-1; Homo sapiens, ASPC1, 168 h): 177 nM | IC50 (GP2D; 168 h): 44.5 nM

C#Cc1c(F)ccc2cc(O)cc(-c3ncc4c(N5C[C@H]6CC[C@@H](C5)N6)nc(OC[C@@]56C[C@@H](F)CN5C[C@@]5(CC5(F)F)C6)nc4c3F)c12 [Example 15C, 4-(4-((1R,5S)-3,8-diazabicyclo[3.2.1]octan-3-yl)-8-fluoro-2-(((1S,6′R,7a′R)-2,2,6′-trifluorodihydro-1′H,3′H-spiro[cyclopropan-1,2′-pyrrolizin]-7a′(5′H)-yl)methoxy)pyridino[4,3-d]pyrimidin-7-yl)-5-ethynyl-6-fluoronaphthalen-2-ol]
IC50 (AsPC-1; Homo sapiens, ASPC1, 168 h): 60.6 nM | IC50 (GP2D; 168 h): 12.1 nM

C#Cc1c(F)ccc2cc(O)cc(-c3ncc4c(N5C[C@H]6CC[C@@H](C5)N6)nc(OC[C@@]56C[C@@H](F)CN5CC5(CC5)C6)nc4c3F)c12 [Example 10B, 4-(4-((1R,5S)-3,8-diazabicyclo[3.2.1]octan-3-yl)-8-fluoro-2-(((6′R,7a′R)-6′-fluorodihydro-1′H,3′H-spiro[cyclopropan-1,2′-pyrrolizin]-7a′(5′H)-yl)methoxy)pyridino[4,3-d]pyrimidin-7-yl)-5-ethynyl-6-fluoronaphthalen-2-ol]
IC50 (AsPC-1; Homo sapiens, ASPC1, 168 h): 17.3 nM | IC50 (GP2D; 168 h): 0.51 nM
